Tests used:
[1] = system: MEC-1 cells; assay: Cytotoxicity (ADCC assay with NK effector cells) of MOR00208 and venetoclax alone and in combination in MEC-1 cells; format: cell-based
Description: Cell lines tested: MEC-1 cells (DSMZ# ACC497). Culture conditions of cell lines used are according to supplier's information. Cell Medium: lscove's Modified Dulbecco's Medium (IMDM), Invitrogen, Cat No.: 31980; RPMI1640, Invitrogen, Cat No.: 31870; GlutaMAX, Invitrogen, CAT No.: 35050; FCS: Sigma CAT No.: F7524 LOT No.: 111M3396. NKs: RPMI1640, with GlutaMAX, Invitrogen, Cat No.: 31870, 10% FCS; Biocoll: Biochrome AG CAT No.: L6115 LOT No.: 0034D; MACS NK cell isolation kit: Miltenyi Biotec CAT No.: 130-092-657 LOT No.: 5150402327; venetoclax: Selleck Chem. CAT No.: S8048 LOT No.: S804803; FCS: Sigma CAT No.: F7524 LOT No.: 111M3396; and RefmAb33 (anti-RSV) with same Fc region as MOR00208.
The cytotoxic potential of MOR00208 and venetoclax alone and in combination were tested in the MEC-1 cell line (CLL). Target cell killing is measured using the following parameters: venetoclax mono treatment at concentrations of 3 μM, 6.5 μM, and 10 μM; MOR00208 mono treatment at concentrations of 0.01 pM, 0.1 pM, 1 pM, 10 pM, 100 pM and 10 nM, and the combination treatment of the listed venetoclax and MOR00208 concentrations. The following are used as controls: RefnnAb33, NK cells alone, MEC-1 cells alone or DMSO. In the venetoclax mono groups as well as in the MOR00208+venetoclax combination groups, target cells were pretreated with venetoclax or with DMSO control for 24 hours followed by removal of the dead cells prior to the ADCC assay. A dead cell removal kit was used to remove cells killed by the cytotoxic effect of venetoclax. The dead cell removal kit was implemented to mimick the removal of dead cells that also occurs in vivo and to prevent false negative interference of the dead cells with the subsequent ADCC assay. For the ADCC assay, target cells are counted and stained using CFSE at a final concentration of 1 μg/mL. For the control group, i.e. DMSO treated target cells, the effector: target (E:T) cell ratio was adjusted to 2:1, i.e. 1×10E6/nnL effector cells (NK cells) and 5×10E5/mL target cells (MEC-1 cells). […] The ADCC assays were performed as follows: using 96 well plates, 100 μL of MEC-1 target cell suspension was added per well, followed by 100 μL NK effector cell suspension per well. Mixed cell suspensions were centrifuged and resuspended in 100 μL antibody containing medium or the according control solution. The antibodies were diluted in a range of 10 nM-0.01 pM (corresponds to 1.5 μg/mL-1.5 pg/mL) in medium. The ADCC assays were incubated for 2 hours in a CO2-incubator at 37° C. After 10 minutes incubation on ice, 50 μL DAPI solution was added to each well (final concentration 1 μg/mL) and incubated for additional 10 minutes on ice. The ADCC measurements were performed on a BD FACSVerse instrument. Dead target cells were identified as DAPI positive cells.
Combination Index (CI) calculations are completed in order to determine synergy of the combination of the exemplified anti-CD19 antibody and venetoclax as compared to MOR00208 and venetoclax alone. Such calculations are described in Ting-Chao Chou, Theoretical Basis, Experimental Design, and Computerized Simulation of Synergism and Antagonism in Drug Combination Studies, Pharmacol Rev 58:621-681 (2006), which is incorporated by reference in its entirety and Chou TC, Talalay P, Quantitative analysis of dose-effect relationships: the combined effects of multiple drugs or enzyme inhibitors. Adv Enzyme Regul 22: 27-55 (1984), which is incorporated by reference in its entirety. The methods of Chou-Talalay are carried out using the CI-isobol method.
The median-effect equation models the effect of an inhibitor (such as a drug) as Fa/Fu=(D/D50)^m, where D is the dose, Fa and Fu is the fraction of the system affected and unaffected by the dose D (Fa+Fu=1); D50 is the dose producing the median effect (e.g. IC50, ED50, LD50). The constant m determines the shape of the dose-effect curve.

[2] = system: TOLEDO human lymphoma cell tumors; assay: Subcutaneous human lymphoma cell xenograft model in SCID mice; settings: MOR00208 11 mg/kg i.p. twice weekly
Description: Toledo cell line and culture medium were purchased and provided by Oncodesign. […] The cells are adherent to plastic flasks.
A statistical test (analysis of variance, ANOVA) was performed to test for homogeneity between groups. MOR208 was injected intraperitoneally (IP) into the peritoneal cavity of mice. Combined substance was administered by oral gavage (per os, PO) via a gavage tube.
The treatment schedule initiated at D23 was as follows:
Animals from group 1 received one daily PO administration of PEP and one IP injection twice a week of PBS.
Animals from group 4 received one IP injection of MOR208 at 11 mg/kg/inj on D23, D27, D30, D34, D37 and D41 followed by a single IP injection of MOR208 at 11 mg/kg/inj on D48 (twice a week).
The viability and behavior were recorded every day. Body weights and tumor volume were measured twice a week. The length and width of the tumor were measured twice a week with calipers and the volume of the tumor was estimated by the formula:

MOR00208: anti-CD19 antibody; heavy chain SEQ ID NO: 14, light chain SEQ ID NO: 15
Theoretical MOR00208 Dose ([1]; Exp 2, same effect as MOR00208 1.50E−03 μg/mL + venetoclax 10.0 μM): * 1.00E+03^ μg/mL
Theoretical MOR00208 Dose ([1]; Exp 2, same effect as MOR00208 1.50E−04 μg/mL + venetoclax 3.0 μM): 0.000155 µg/mL
Theoretical MOR00208 Dose ([1]; Exp 2, same effect as MOR00208 1.50E−04 μg/mL + venetoclax 6.5 μM): 0.000591 µg/mL
Theoretical MOR00208 Dose ([1]; Exp 2, same effect as MOR00208 1.50E−04 μg/mL + venetoclax 10.0 μM): 0.00289 µg/mL
Theoretical MOR00208 Dose ([1]; Exp 2, same effect as MOR00208 1.50E−05 μg/mL + venetoclax 3.0 μM): 1.94e-05 µg/mL
Theoretical MOR00208 Dose ([1]; Exp 2, same effect as MOR00208 1.50E−05 μg/mL + venetoclax 6.5 μM): 0.000109 µg/mL
Theoretical MOR00208 Dose ([1]; Exp 2, same effect as MOR00208 1.50E−05 μg/mL + venetoclax 10.0 μM): 0.000725 µg/mL
Theoretical MOR00208 Dose ([1]; Exp 2, same effect as MOR00208 1.50E−06 μg/mL + venetoclax 6.5 μM): 2.9e-05 µg/mL
Theoretical MOR00208 Dose ([1]; Exp 2, same effect as MOR00208 1.50E−06 μg/mL + venetoclax 10.0 μM): 0.000145 µg/mL
Actual MOR00208 Effect ([1]; Exp 3, MOR00208 1.50E+00 μg/mL): 74.8 % dead cells
Actual MOR00208 Effect ([1]; Exp 3, MOR00208 1.50E−02 μg/mL): 69.1 % dead cells
Actual MOR00208 Effect ([1]; Exp 3, MOR00208 1.50E−03 μg/mL): 45.3 % dead cells
Actual MOR00208 Effect ([1]; Exp 3, MOR00208 1.50E−04 μg/mL): 26.6 % dead cells
Actual MOR00208 Effect ([1]; Exp 3, MOR00208 1.50E−05 μg/mL): 18.9 % dead cells
Actual MOR00208 Effect ([1]; Exp 3, MOR00208 1.50E−06 μg/mL): 11.8 % dead cells
Theoretical MOR00208 Dose ([1]; Exp 3, same effect as MOR00208 1.50E+00 μg/mL + venetoclax 3.0 μM): * 1.00E+03^ μg/mL
Theoretical MOR00208 Dose ([1]; Exp 3, same effect as MOR00208 1.50E+00 μg/mL + venetoclax 6.5 μM): * 1.00E+03^ μg/mL
Theoretical MOR00208 Dose ([1]; Exp 3, same effect as MOR00208 1.50E+00 μg/mL + venetoclax 10.0 μM): * 1.00E+03^ μg/mL
Theoretical MOR00208 Dose ([1]; Exp 3, same effect as MOR00208 1.50E−02 μg/mL + venetoclax 3.0 μM): 0.279 µg/mL
Theoretical MOR00208 Dose ([1]; Exp 3, same effect as MOR00208 1.50E−02 μg/mL + venetoclax 6.5 μM): * 1.00E+03^ μg/mL
Theoretical MOR00208 Dose ([1]; Exp 3, same effect as MOR00208 1.50E−02 μg/mL + venetoclax 10.0 μM): * 1.00E+03^ μg/mL
Theoretical MOR00208 Dose ([1]; Exp 3, same effect as MOR00208 1.50E−03 μg/mL + venetoclax 3.0 μM): 0.00152 µg/mL
Theoretical MOR00208 Dose ([1]; Exp 3, same effect as MOR00208 1.50E−03 μg/mL + venetoclax 6.5 μM): 0.00652 µg/mL
Theoretical MOR00208 Dose ([1]; Exp 3, same effect as MOR00208 1.50E−03 μg/mL + venetoclax 10.0 μM): * 1.00E+03^ μg/mL
Theoretical MOR00208 Dose ([1]; Exp 3, same effect as MOR00208 1.50E−04 μg/mL + venetoclax 3.0 μM): 0.000218 µg/mL
Theoretical MOR00208 Dose ([1]; Exp 3, same effect as MOR00208 1.50E−04 μg/mL + venetoclax 6.5 μM): 0.000602 µg/mL
Theoretical MOR00208 Dose ([1]; Exp 3, same effect as MOR00208 1.50E−04 μg/mL + venetoclax 10.0 μM): 0.0042 µg/mL
Theoretical MOR00208 Dose ([1]; Exp 3, same effect as MOR00208 1.50E−05 μg/mL + venetoclax 3.0 μM): 2.9e-05 µg/mL
Theoretical MOR00208 Dose ([1]; Exp 3, same effect as MOR00208 1.50E−05 μg/mL + venetoclax 6.5 μM): 0.000157 µg/mL
Theoretical MOR00208 Dose ([1]; Exp 3, same effect as MOR00208 1.50E−05 μg/mL + venetoclax 10.0 μM): 0.000983 µg/mL
Theoretical MOR00208 Dose ([1]; Exp 3, same effect as MOR00208 1.50E−06 μg/mL + venetoclax 6.5 μM): 2.67e-05 µg/mL
Theoretical MOR00208 Dose ([1]; Exp 3, same effect as MOR00208 1.50E−06 μg/mL + venetoclax 10.0 μM): 0.000371 µg/mL
Effect in ADCC cell killing assays (in words) ([1]; very low doses of MOR00208): little or no effect
Median Tumor Doubling Time [2]: 8.0 days
Median Survival (Days Post-Randomization) ([2]; humane endpoint tumor volume 2000 mm3): 25.3 days
Median % Increase in Doubling Time (IDT) ([2]; vs. PEP/PBS Control): 18%
Median % Increase in Lifespan (ILS) ([2]; vs. PEP/PBS Control): 20%
